Results: patent US5698580A, “Antiviral agent containing benzodithiin derivative as active ingredient” (Rational Drug Design Laboratories, priority 1994, dated 1997)
Converted amounts (≈) assume the structure as drawn.

What was measured:
[1] = in vitro; format: cell-based; conditions: human, hela cells
Protocol: Maintenance media (Eagle's MEM media supplemented with 2% bovine serum albumin) containing compounds 1-13 or Ribavirin (control drug) at various concentrations, a HeLa cell suspension prepared in advance by digestion with trypsin, and maintenance media containing RS virus Long strain were plated in 96 well round-bottom microplates, and centrifuged at a low speed (700×g) for 5 minutes at room temperature. After the completion of the centrifugation, the media were incubated in a CO2 gas incubator at 35° C. for 5 days. The MTT [3-(4,5-dimethylthiazol-2-yl)-2,5-diphenyltetrazolium bromide] solution was added to the media at 4 hours before the completion of the incubation, and the proportion of viable cells was colorimetrically determined on a microplate reader. The concentration of the compound at which cell destruction by RS virus infection was inhibited by 50% is shown as antiviral activity (EC50). In addition, 50% cytotoxicity value (CC50) of the compound was calculated from the tests run concurrently without inoculation of RS virus. The ratio of CC50 to EC50 was determined as S.I. (selectivity index, CC50 /EC50).

[2] = test system: RS virus; assay: Suppression of RS virus assayed by the MTT method (Experimental Example 1); format: cell-based, RS virus Long strain; conditions: for EC50: 120 h, concentration inhibiting HeLa cell destruction by RS virus infection by 50%, 35° C., 5 days, MTT; for S.I. (selectivity index, CC50/EC50): ratio of CC50 to EC50, MTT method
Protocol: After the completion of the centrifugation, the media were incubated in a CO2 gas incubator at 35° C. for 5 days. The MTT [3-(4,5-dimethylthiazol-2-yl)-2,5-diphenyltetrazolium bromide] solution was added to the media at 4 hours before the completion of the incubation, and the proportion of viable cells was colorimetrically determined on a microplate reader. The concentration of the compound at which cell destruction by RS virus infection was inhibited by 50% is shown as antiviral activity (EC50). In addition, 50% cytotoxicity value (CC50) of the compound was calculated from the tests run concurrently without inoculation of RS virus. The ratio of CC50 to EC50 was determined as S.I. (selectivity index, CC50 /EC50).

[3] = test system: RS virus; assay: Suppression of RS virus assayed by plaque reduction method (Experimental Example 2); format: cell-based, RS virus Long strain; conditions: for EC50: 96 h, concentration decreasing number of plaques by 50%, HeLa cells, 35° C., 4 days; for S.I. (selectivity index, CC50/EC50): ratio of CC50 to EC50, plaque reduction method
Protocol: (§1) The confluently grown HeLa cells in 24 well flat-bottom multitrays were inoculated with RS virus Long strain prepared in a maintenance medium (Eagle's MEM medium supplemented with 2% bovine serum albumin), and the cells were incubated in a CO2 gas incubator at 35° C. for one hour. Culture solution was discarded and the cells were washed with a maintenance medium. Then, maintenance media (supplemented with 0.6% methylcellulose) containing Compound 1 or Ribavirin (control drug) at various concentrations were added, and the media were incubated in a CO2 gas incubator at 35° C. for 4 days. After the completion of the incubation, the cells were fixed with a 5% aqueous formalin solution for 6 hours and washed with tap water. Then, the cells were stained with a 0.025% aqueous crystal violet solution. The infected cell plaques which were not stained with crystal violet were microscopically counted. The plaques formed using the compound at various concentrations and those of control group without the compound were counted, and the concentration of the compound at which the number of plaques was decreased by 50% is shown as an antiviral activity (EC50). In addition, 50% cytotoxicity (CC50) of the compound was calculated by the MTT method. The ratio of CC50 to EC50 was determined as S.I. (selectivity index, CC50 /EC50).

[4] = in vitro; format: cell-based; conditions: human, hela cells; remark: listed apart in the source
Protocol: as §1

[5] = test system: RS virus; conditions: background art; cited from earlier work
[6] = background art; cited from earlier work

Row | SMILES | EC50 [2] [µg/mL] | CC50 at 120 h [1] [µg/mL] | S.I. (selectivity index, CC50/EC50) [2] | EC50 [3] [µg/mL] | S.I. (selectivity index, CC50/EC50) [3] | CC50 [4] [µg/mL] | effect against RS virus [5] | teratogenicity, carcinogenicity and mutagenicity [6] | toxicity [6]
1 | COC(=O)c1ccc2c(c1)CSSC2 [Compound 4, methyl 1,4-dihydro-2,3-benzodithiin-6-carboxylate] | 1.8 (≈ 7.95 µM) | 9.7 (≈ 42.9 µM) | 5.4 |  |  |  |  |  | 
2 | c1ccc2c(c1)CSSC2 [Compound 1, 1,4-dihydro-2,3-benzodithiin] | 0.3 (≈ 1.78 µM) | 43 (≈ 256 µM) | 143.3 | 1.7 (≈ 10.1 µM) | 26.29 | 44.7 (≈ 266 µM) |  |  | 
3 | Fc1cccc2c1CSSC2 [Compound 10, 1,4-dihydro-5-fluoro-2,3-benzodithiin] | 1.1 (≈ 5.91 µM) | > 100 | > 90.9 |  |  |  |  |  | 
4 | CC(C)(C)c1ccc2c(c1)CSSC2 [Compound 13, 6-tert-butyl-1,4-dihydro-2,3-benzodithiin] | 6.5 (≈ 29 µM) | 15.2 (≈ 67.7 µM) | 2.3 |  |  |  |  |  | 
5 | CN(C)c1ccc2c(c1)CSSC2 [Compound 12, 1,4-dihydro-6-N,N-dimethylamino-2,3-benzodithiin] | 2.3 (≈ 10.9 µM) | 33.3 (≈ 158 µM) | 14.5 |  |  |  |  |  | 
6 | c1ccc(COc2ccc3c(c2)CSSC3)cc1 [Compound 7, 6-benzyloxy-1,4-dihydro-2,3-benzodithiin] | > 9.6 | 9.6 (≈ 35 µM) |  |  |  |  |  |  | 
7 | NC(=O)c1ncn([C@@H]2O[C@H](CO)[C@@H](O)[C@H]2O)n1 [Ribavirin, reference compound] | 7.6 (≈ 31.1 µM) | > 100 | 13.2 | 3.7 (≈ 15.2 µM) | 27.03 | > 100 | effective against RS virus | teratogenic, carcinogenic and mutagenic | high toxicity

The next lines start with results.

Row | EC50 [2] [µg/mL] | SMILES | CC50 at 120 h [1] [µg/mL] | S.I. (selectivity index, CC50/EC50) [2] | EC50 [3] [µg/mL] | S.I. (selectivity index, CC50/EC50) [3] | CC50 [4] [µg/mL] | effect against RS virus [5] | teratogenicity, carcinogenicity and mutagenicity [6] | toxicity [6]
8 | 0.8 (≈ 4.29 µM) | Fc1ccc2c(c1)CSSC2 [Compound 9, 1,4-dihydro-6-fluoro-2,3-benzodithiin] | 57.7 (≈ 310 µM) | 72.1 |  |  |  |  |  | 
9 | 0.2 (≈ 1.1 µM) | Cc1ccc2c(c1)CSSC2 [Compound 6, 1,4-dihydro-6-methyl-2,3-benzodithiin] | 44.7 (≈ 245 µM) | 224 |  |  |  |  |  | 
10 | 3 (≈ 16.4 µM) | Nc1ccc2c(c1)CSSC2 [Compound 3, 6-amino-1,4-dihydro-2,3-benzodithiin] | 5.1 (≈ 27.8 µM) | 1.7 |  |  |  |  |  | 
11 | 1.7 (≈ 8.39 µM) | Clc1ccc2c(c1)CSSC2 [Compound 11, 6-chloro-1,4-dihydro-2,3-benzodithiin] | 16.8 (≈ 82.9 µM) | 9.9 |  |  |  |  |  | 
12 | 11.8 (≈ 55.6 µM) | O=C(O)c1ccc2c(c1)CSSC2 [Compound 5, 1,4-dihydro-2,3-benzodithiin-6-carboxylic acid] | 47.2 (≈ 222 µM) | 4.0 |  |  |  |  |  | 
13 | 1.9 (≈ 8.91 µM) | O=[N+]([O-])c1ccc2c(c1)CSSC2 [Compound 2, 1,4-dihydro-6-nitro-2,3-benzodithiin] | 8.9 (≈ 41.7 µM) | 4.7 |  |  |  |  |  | 
14 | 1.6 (≈ 8.07 µM) | COc1ccc2c(c1)CSSC2 [Compound 8, 1,4-dihydro-6-methoxy-2,3-benzodithiin] | 12.8 (≈ 64.5 µM) | 8.0 |  |  |  |  |  | 
